Assay results: the supplement of paper PMC10307832

Experiments:
Assay in all cases: relative viability (nuclei count vs DMSO), 5 days (fraction); higher = more cells survive
[1] = system: A549
Procedure, shortened: (§1)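 Medians of duplicate plates are given as relative viability. That measure is the nuclei count in treated wells divided by the count in vehicle wells. Counts were taken on 4× images of lung cancer cell lines in 1536-well plates, 5 days after pin-tool dosing the day after seeding with one drug alone or a fixed anchor-drug dose plus five library-drug doses (not always all listed) in √10 steps.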

[2] = system: NCI-H2170
Procedure, shortened: as §1

[3] = system: Calu-6
Procedure, shortened: as §1

[4] = system: EBC-1
Procedure, shortened: as §1

[5] = system: IA-LM
Procedure, shortened: as §1

[6] = system: NCI-H1299
Procedure, shortened: as §1

[7] = system: NCI-H727
Procedure, shortened: as §1

[8] = system: NCI-H520
Procedure, shortened: as §1

[9] = system: NCI-H1703
Procedure, shortened: as §1

[10] = system: NCI-H2023
Procedure, shortened: as §1

## Cc1csc(=NC2CCCCC2)n1/N=C/c1ccc(O)c(O)c1O [MIM1] + C[C@@H](Oc1cc(-c2cnn(C3CCNCC3)c2)cnc1N)c1c(Cl)ccc(F)c1Cl [Crizotinib] (partner 1 µM)
[1]; first compound 0.2 µM
  relative viability: 0.709
[1]; first compound 0.6325 µM
  relative viability: 0.715
[1]; first compound 2 µM
  relative viability: 0.762
[1]; first compound 6.325 µM
  relative viability: 0.402
[1]; first compound 20 µM
  relative viability: 0.227
[2]; first compound 0.2 µM
  relative viability: 1.15
[2]; first compound 0.6325 µM
  relative viability: 1.07
[2]; first compound 2 µM
  relative viability: 1.13
[2]; first compound 6.325 µM
  relative viability: 0.652
[2]; first compound 20 µM
  relative viability: 0.302
[3]; first compound 0.2 µM
  relative viability: 0.785
[3]; first compound 0.6325 µM
  relative viability: 0.826
[3]; first compound 2 µM
  relative viability: 0.696
[3]; first compound 6.325 µM
  relative viability: 0.36
[3]; first compound 20 µM
  relative viability: 0.186
[4]; first compound 0.2 µM
  relative viability: 0.207
[4]; first compound 0.6325 µM
  relative viability: 0.196
[4]; first compound 2 µM
  relative viability: 0.195
[4]; first compound 6.325 µM
  relative viability: 0.196
[4]; first compound 20 µM
  relative viability: 0.227
[5]; first compound 0.2 µM
  relative viability: 0.697
[5]; first compound 0.6325 µM
  relative viability: 0.789
[5]; first compound 2 µM
  relative viability: 0.773
[5]; first compound 6.325 µM
  relative viability: 0.443
[5]; first compound 20 µM
  relative viability: 0.204
[6]; first compound 0.2 µM
  relative viability: 0.857
[6]; first compound 0.6325 µM
  relative viability: 0.975
[6]; first compound 2 µM
  relative viability: 0.975
[6]; first compound 6.325 µM
  relative viability: 0.966
[6]; first compound 20 µM
  relative viability: 0.904
[7]; first compound 0.2 µM
  relative viability: 0.836
[7]; first compound 0.6325 µM
  relative viability: 0.81
[7]; first compound 2 µM
  relative viability: 0.795
[7]; first compound 6.325 µM
  relative viability: 0.534
[7]; first compound 20 µM
  relative viability: 0.349
[8]; first compound 0.2 µM
  relative viability: 0.688
[8]; first compound 0.6325 µM
  relative viability: 0.787
[8]; first compound 2 µM
  relative viability: 0.862
[8]; first compound 6.325 µM
  relative viability: 0.578
[8]; first compound 20 µM
  relative viability: 0.498
[9]; first compound 0.2 µM
  relative viability: 0.534
[9]; first compound 0.6325 µM
  relative viability: 0.482
[9]; first compound 2 µM
  relative viability: 0.455
[9]; first compound 6.325 µM
  relative viability: 0.175
[9]; first compound 20 µM
  relative viability: 0.127
[10]; first compound 0.2 µM
  relative viability: 0.551
[10]; first compound 0.6325 µM
  relative viability: 0.598
[10]; first compound 2 µM
  relative viability: 0.573
[10]; first compound 6.325 µM
  relative viability: 0.406
[10]; first compound 20 µM
  relative viability: 0.111

## Cc1csc(=NC2CCCCC2)n1/N=C/c1ccc(O)c(O)c1O [MIM1] + Cc1nc(NC(=O)N2CCC[C@H]2C(N)=O)sc1-c1ccnc(C(C)(C)C(F)(F)F)c1 [Alpelisib] (partner 2 µM)
[1]; first compound 0.2 µM
  relative viability: 0.69
[1]; first compound 0.6325 µM
  relative viability: 0.879
[1]; first compound 2 µM
  relative viability: 0.79
[1]; first compound 6.325 µM
  relative viability: 0.56
[1]; first compound 20 µM
  relative viability: 0.102
[2]; first compound 0.2 µM
  relative viability: 0.769
[2]; first compound 0.6325 µM
  relative viability: 0.814
[2]; first compound 2 µM
  relative viability: 0.812
[2]; first compound 6.325 µM
  relative viability: 0.651
[2]; first compound 20 µM
  relative viability: 0.337
[3]; first compound 0.2 µM
  relative viability: 0.971
[3]; first compound 0.6325 µM
  relative viability: 1.02
[3]; first compound 2 µM
  relative viability: 0.813
[3]; first compound 6.325 µM
  relative viability: 0.339
[3]; first compound 20 µM
  relative viability: 0.208
[4]; first compound 0.2 µM
  relative viability: 0.801
[4]; first compound 0.6325 µM
  relative viability: 0.862
[4]; first compound 2 µM
  relative viability: 0.785
[4]; first compound 6.325 µM
  relative viability: 0.531
[4]; first compound 20 µM
  relative viability: 0.296
[5]; first compound 0.2 µM
  relative viability: 0.829
[5]; first compound 0.6325 µM
  relative viability: 0.805
[5]; first compound 2 µM
  relative viability: 0.644
[5]; first compound 6.325 µM
  relative viability: 0.266
[5]; first compound 20 µM
  relative viability: 0.148
[6]; first compound 0.2 µM
  relative viability: 1.01
[6]; first compound 0.6325 µM
  relative viability: 1.05
[6]; first compound 2 µM
  relative viability: 1.06
[6]; first compound 6.325 µM
  relative viability: 1.01
[6]; first compound 20 µM
  relative viability: 0.87
[7]; first compound 0.2 µM
  relative viability: 0.595
[7]; first compound 0.6325 µM
  relative viability: 0.614
[7]; first compound 2 µM
  relative viability: 0.534
[7]; first compound 6.325 µM
  relative viability: 0.482
[7]; first compound 20 µM
  relative viability: 0.397
[8]; first compound 0.2 µM
  relative viability: 0.902
[8]; first compound 0.6325 µM
  relative viability: 0.9
[8]; first compound 2 µM
  relative viability: 1.19
[8]; first compound 6.325 µM
  relative viability: 0.633
[8]; first compound 20 µM
  relative viability: 0.41
[9]; first compound 0.2 µM
  relative viability: 0.329
[9]; first compound 0.6325 µM
  relative viability: 0.34
[9]; first compound 2 µM
  relative viability: 0.352
[9]; first compound 6.325 µM
  relative viability: 0.171
[9]; first compound 20 µM
  relative viability: 0.123
[10]; first compound 0.2 µM
  relative viability: 0.564
[10]; first compound 0.6325 µM
  relative viability: 0.594
[10]; first compound 2 µM
  relative viability: 0.526
[10]; first compound 6.325 µM
  relative viability: 0.368
[10]; first compound 20 µM
  relative viability: 0.328
